Experimental data: patent US20230131899A1, “INHIBITORS OF MICROBIALLY INDUCED AMYLOID” (Axial Therapeutics, Inc., priority 2020, published 2023)
Where two headings read alike, the source gives them in different places.

Target: T1, E. coli CsgA (Escherichia coli, UniProt P28307)
T1 construct: made in house; host or cells: E. coli NEB 3016 slyD::kan, pET11d
Test: In vitro ThioflavinT assay of CsgA aggregation (CsgA ThT Assay)
Assay type: biochemical
Conditions: for remaining activity at 25 µM: compound 25 μM; for remaining activity at 100 µM: compound 100 μM
Method in brief: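 Purified C-terminal His-tagged CsgA, monomerised by desalting and 30-kDa filtration, at 2-20 μM with 20-40 μM ThT in 50 mM potassium phosphate pH 7.3, 1% DMSO, compounds 3.125-200 uM; room temperature, fluorescence (ex 438/em 495 nm) read every 15 min. Background-subtracted signal expressed as percent inhibition versus vehicle at 6-6.5 or 8-9 h, or as percent control AUC.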

[1] = read-out: CsgA ThT Assay (10 μM CsgA) % Control AUC at 1005 minutes, 25 μM (activity range), CsgA 10 μM, black plates, 1005 minutes, class symbol
[2] = read-out: CsgA ThT Assay (10 μM CsgA) % Control AUC at 1005 minutes, 25 μM, mean AUC as % of DMSO control, CsgA 10 μM, black plates, 1005 minutes
[3] = read-out: CsgA ThT Assay (10 μM CsgA) % Control AUC at 1005 minutes, 100 μM (activity range), CsgA 10 μM, black plates, 1005 minutes, class symbol
[4] = read-out: CsgA ThT Assay (10 μM CsgA) % Control AUC at 1005 minutes, 100 μM, mean AUC as % of DMSO control, CsgA 10 μM, black plates, 1005 minutes
[5] = read-out: CsgA ThT Assay (2 μM CsgA) % Control Bmax 25 μM, activity range, class symbol, CsgA 2 μM, white plates
[6] = read-out: CsgA ThT Assay (2 μM CsgA) % Control Bmax 25 μM, mean Bmax as percentage of DMSO control, CsgA 2 μM, white plates
[7] = read-out: CsgA ThT Assay (2 μM CsgA) % Control Bmax 100 μM, activity range, class symbol, CsgA 2 μM, white plates
[8] = read-out: CsgA ThT Assay (2 μM CsgA) % Control Bmax 100 μM, mean Bmax as percentage of DMSO control, CsgA 2 μM, white plates

T1 sequence (P28307 23-151): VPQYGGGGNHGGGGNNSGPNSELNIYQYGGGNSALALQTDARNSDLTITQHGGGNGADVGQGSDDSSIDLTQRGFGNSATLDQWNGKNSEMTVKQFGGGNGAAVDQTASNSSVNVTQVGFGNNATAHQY

| Structure (SMILES) | remaining activity at 25 µM [1] | remaining activity at 25 µM [2] | remaining activity at 100 µM [3] | remaining activity at 100 µM [4] | remaining activity at 25 µM [5] | remaining activity at 25 µM [6] | remaining activity at 100 µM [7] | remaining activity at 100 µM [8] |
| --- | --- | --- | --- | --- | --- | --- | --- | --- |
| CC1(C)Sc2c(-c3cccc(C(F)(F)F)c3)c(Cc3cccc4ccccc34)nc(=O)n2C1C(=O)O (centres unmarked) [Compound 059, 2,2-dimethyl-7-(naphthalen-1-ylmethyl)-5-oxo-8-(3-(trifluoromethyl)phenyl)-2,3-dihydro-5H-thiazolo[3,2-c]pyrimidine-3-carboxylic acid] | > 60% | 63% | 11 to 31% | 22% |  |  |  |  |
| Cn1c(=O)c2c(ncn2CCCCN2CC(C(=O)O)n3c(c(-c4cccc(C(F)(F)F)c4)c(Cc4cccc5ccccc45)cc3=O)S2(=O)=O)n(C)c1=O (centres unmarked) [Compound 033, 2-(4-(1,3-dimethyl-2,6-dioxo-1,2,3,6-tetrahydro-7H-purin-7-yl)butyl)-8-(naphthalen-1-ylmethyl)-6-oxo-9-(3-(trifluoromethyl)phenyl)-3,4-dihydro-2H,6H-pyrido[1,2-e][1,2,5]thiadiazine-4-carboxylic acid 1,1-dioxide] | > 60% | 68% | > 60% | 79% |  |  |  |  |
| CC(C)CN1CC(C(=O)O)n2c1c(-c1cccc(C(F)(F)F)c1)c(Cc1cccc3ccccc13)c(Cl)c2=O (centres unmarked) [Compound 164, 6-chloro-1-isobutyl-7-(naphthalen-1-ylmethyl)-5-oxo-8-(3-(trifluoromethyl)phenyl)-1,2,3,5-tetrahydroimidazo[1,2-a]pyridine-3-carboxylic acid] |  |  |  |  | 31 to 60% | 52% | 31 to 60% | 42% |
| O=C(O)C1CN(Cc2ccccc2)c2c(-c3cccc(C(F)(F)F)c3)c(Cc3cccc4ccccc34)c(Br)c(=O)n21 (centres unmarked) [Compound 003, 1-benzyl-6-bromo-7-(naphthalen-1-ylmethyl)-5-oxo-8-(3-(trifluoromethyl)phenyl)-1,2,3,5-tetrahydroimidazo[1,2-a]pyridine-3-carboxylic acid] |  |  |  |  | 31 to 60% | 54% | 11 to 31% | 16% |
| CCCN1CC(C(=O)O)n2c(c(-c3cccc(C(F)(F)F)c3)c(Cc3cccc4ccccc34)c(NC(=O)CC)c2=O)S1(=O)=O (centres unmarked) [Compound 153, 8-(naphthalen-1-ylmethyl)-6-oxo-7-propionamido-2-propyl-9-(3-(trifluoromethyl)phenyl)-3,4-dihydro-2H,6H-pyrido[1,2-e][1,2,5]thiadiazine-4-carboxylic acid 1,1-dioxide] |  |  |  |  | > 60% | 91% | > 60% | 83% |
| CCCCN1CC(C(=O)O)n2c1c(-c1cccc(C(F)(F)F)c1)c(Cc1cccc3ccccc13)c(Cl)c2=O (centres unmarked) [Compound 163, 1-butyl-6-chloro-7-(naphthalen-1-ylmethyl)-5-oxo-8-(3-(trifluoromethyl)phenyl)-1,2,3,5-tetrahydroimidazo[1,2-a]pyridine-3-carboxylic acid] |  |  |  |  | 31 to 60% | 33% | 31 to 60% | 42% |
| NC(=O)c1c(Cc2cccc3ccccc23)c(-c2cccc(C(F)(F)F)c2)c2n(c1=O)C(C(=O)O)CN(CCCO)S2(=O)=O (centres unmarked) [Compound 184, 7-carbamoyl-2-(3-hydroxypropyl)-8-(naphthalen-1-ylmethyl)-6-oxo-9-(3-(trifluoromethyl)phenyl)-3,4-dihydro-2H,6H-pyrido[1,2-e][1,2,5]thiadiazine-4-carboxylic acid 1,1-dioxide] |  |  |  |  | 31 to 60% | 45% | 11 to 31% | 22% |
| O=C(O)c1c(CCc2ccccc2)sc2c(-c3cccc(C(F)(F)F)c3)c(Cc3cccc4ccccc34)cc(=O)n12 [Compound 062, 7-(naphthalen-1-ylmethyl)-5-oxo-2-phenethyl-8-(3-(trifluoromethyl)phenyl)-5H-thiazolo[3,2-a]pyridine-3-carboxylic acid] | > 60% | 77% | > 60% | 97% |  |  |  |  |
| CCCN1CC(C(=O)O)n2c1c(-c1cccc(C(F)(F)F)c1)c(Cc1cccc3ccccc13)c(Cl)c2=O (centres unmarked) [Compound 162, 6-chloro-7-(naphthalen-1-ylmethyl)-5-oxo-1-propyl-8-(3-(trifluoromethyl)phenyl)-1,2,3,5-tetrahydroimidazo[1,2-a]pyridine-3-carboxylic acid] |  |  |  |  | 31 to 60% | 34% | 31 to 60% | 49% |
| CN1CC(C(=O)O)n2c(c(-c3cccc(C(F)(F)F)c3)c(Cc3cccc4ccccc34)c(C(=O)NC(C)(C)C)c2=O)S1(=O)=O (centres unmarked) [Compound 158, 7-(tert-butylcarbamoyl)-2-methyl-8-(naphthalen-1-ylmethyl)-6-oxo-9-(3-(trifluoromethyl)phenyl)-3,4-dihydro-2H,6H-pyrido[1,2-e][1,2,5]thiadiazine-4-carboxylic acid 1,1-dioxide] |  |  |  |  | > 60% | 69% | > 60% | 72% |
| O=C(O)C1CN(Cc2cccc3ccccc23)c2c(-c3cccc(C(F)(F)F)c3)c(Cc3cccc4ccccc34)c(Cl)c(=O)n21 (centres unmarked) [Compound 200, 6-chloro-1,7-bis(naphthalen-1-ylmethyl)-5-oxo-8-(3-(trifluoromethyl)phenyl)-1,2,3,5-tetrahydroimidazo[1,2-a]pyridine-3-carboxylic acid] |  |  |  |  | 31 to 60% | 52% | < 10% | 7% |
| O=C(O)C1CN(Cc2ccccc2)c2c(-c3cccc(C(F)(F)F)c3)c(Cc3cccc4ccccc34)c(F)c(=O)n21 (centres unmarked) [Compound 194, 1-benzyl-6-fluoro-7-(naphthalen-1-ylmethyl)-5-oxo-8-(3-(trifluoromethyl)phenyl)-1,2,3,5-tetrahydroimidazo[1,2-a]pyridine-3-carboxylic acid] |  |  |  |  | > 60% | 100% | > 60% | 67% |
| Nc1c(Cc2ccc(N)c3ccccc23)c(-c2cccc(C(F)(F)F)c2)c2n(c1=O)C(C(=O)O)CNS2(=O)=O (centres unmarked) [Compound 041] | > 60% | 75% | 11 to 31% | 27% |  |  |  |  |
| O=C(O)C1CN(Cc2ccccc2)c2c(-c3cccc(C(F)(F)F)c3)c(Cc3cccc4ccccc34)c(Cl)c(=O)n21 (centres unmarked) [Compound 004, 1-benzyl-6-chloro-7-(naphthalen-1-ylmethyl)-5-oxo-8-(3-(trifluoromethyl)phenyl)-1,2,3,5-tetrahydroimidazo[1,2-a]pyridine-3-carboxylic acid] |  |  |  |  | 31 to 60% | 57% | 11 to 31% | 26% |
| CCCNC(=O)c1c(Cc2cccc3ccccc23)c(-c2cccc(C(F)(F)F)c2)c2n(c1=O)C(C(=O)O)CN(C)S2(=O)=O (centres unmarked) [Compound 154, 2-methyl-8-(naphthalen-1-ylmethyl)-6-oxo-7-(propylcarbamoyl)-9-(3-(trifluoromethyl)phenyl)-3,4-dihydro-2H,6H-pyrido[1,2-e][1,2,5]thiadiazine-4-carboxylic acid 1,1-dioxide] |  |  |  |  | > 60% | 92% | > 60% | 63% |
| CN(C)C(=O)c1c(Cc2cccc3ccccc23)c(-c2cccc(C(F)(F)F)c2)c2n(c1=O)C(C(=O)O)CN(C)S2(=O)=O (centres unmarked) [Compound 173, 7-(dimethylcarbamoyl)-2-methyl-8-(naphthalen-1-ylmethyl)-6-oxo-9-(3-(trifluoromethyl)phenyl)-3,4-dihydro-2H,6H-pyrido[1,2-e] [1,2,5] thiadiazine-4-carboxylic acid 1,1-dioxide] |  |  |  |  | > 60% | 73% | 31 to 60% | 40% |
| CCCN1CC(C(=O)O)n2c(c(-c3cccc(C(F)(F)F)c3)c(Cc3cccc4ccccc34)c(OCC)c2=O)S1(=O)=O (centres unmarked) [Compound 143, 7-ethoxy-8-(naphthalen-1-ylmethyl)-6-oxo-2-propyl-9-(3-(trifluoromethyl)phenyl)-3,4-dihydro-2H,6H-pyrido[1,2-e][1,2,5]thiadiazine-4-carboxylic acid 1,1-dioxide] |  |  |  |  | > 60% | 87% | > 60% | 88% |
